Data from patent publication US20250236611A1, “PYRAZOLE COMPOUNDS AND USES THEREOF” (ALCON INC., priority 2021, published 2025).

What was measured:
Assay type in all cases: biochemical
Conditions in all cases: 10 nM JAK enzyme, 800 nM Abl peptide, room temperature 75 min
[1] = target: TYK2 (Homo sapiens, UniProt P29597); experiment: JAK assay (KINASE-GLO luminescent kinase assay), TYK2
Protocol: All compounds were initially prepared as 10 mM stocks in anhydrous dimethylsulfoxide (DMSO). […] Test compounds were then serially diluted 1:5 in DMSO for an 11-point concentration response and further diluted in the assay buffer bringing all compound concentrations to a final range of 100 μM to 10 pM in 2.5% DMSO. The assay was performed in white 96-well, flat-bottom, half-area, non-binding assay plate (Corning #3642) in assay buffer consisting of 20 mM HEPES (pH 7.5), 10 mM MgCl2*6H2O, 100 μM sodium orthovanadate, 0.05% CHAPS and 0.1% bovine serum albumin. A 10 μL aliquot of compound from each well of the intermediate dilution plate and 20 μL of a 2×JAK substrate/enzyme solution containing acceptor substrate (800 nM Abl peptide), JAK enzyme (10 nM JAK1, JAK2, JAK3, or TYK2), and 1,4-Dithiothreitol (DTT, 2 μM) were added to all wells. The reaction was initiated by the addition of 10 μL of 4× stock solution ATP (2 μM). Reactions were thoroughly mixed manually, covered and allowed to incubate at room temperature for 75 min. Protein kinase activity was quantitated using Promega's KINASE-GLO™ luminescent Kinase Assay Kit according to the manufacturer's directions. ATP concentrations remaining in Test wells following the termination of the enzymatic reaction were compared against control wells containing equivalent amounts of DMSO containing no inhibitor (CTRL). […] Percent of Control (POC) values were determined for each concentration of compound tested according to the equation:
(§1) [formula] • IC50 values were calculated using the following 4-parameter logistic curve-fitting algorithm:
(§2) [formula] • IC50 values were converted to Ki values using the Cheng-Prusoff Equation: […]

[2] = target: JAK2 (Homo sapiens, UniProt O60674); experiment: JAK assay (KINASE-GLO luminescent kinase assay), JAK2
Protocol: (§3) All compounds were initially prepared as 10 mM stocks in anhydrous dimethylsulfoxide (DMSO). A 20 μL aliquot of the 10 mM solutions was transferred to individual wells in column 1 of a 96-well polypropylene microtiter plate (Corning #3363) and diluted with DMSO to give a final compound concentration of 4 mM. Test compounds were then serially diluted 1:5 in DMSO for an 11-point concentration response and further diluted in the assay buffer bringing all compound concentrations to a final range of 100 μM to 10 pM in 2.5% DMSO. The assay was performed in white 96-well, flat-bottom, half-area, non-binding assay plate (Corning #3642) in assay buffer consisting of 20 mM HEPES (pH 7.5), 10 mM MgCl2*6H2O, 100 μM sodium orthovanadate, 0.05% CHAPS and 0.1% bovine serum albumin. A 10 μL aliquot of compound from each well of the intermediate dilution plate and 20 μL of a 2×JAK substrate/enzyme solution containing acceptor substrate (800 nM Abl peptide), JAK enzyme (10 nM JAK1, JAK2, JAK3, or TYK2), and 1,4-Dithiothreitol (DTT, 2 μM) were added to all wells. The reaction was initiated by the addition of 10 μL of 4× stock solution ATP (2 μM). Reactions were thoroughly mixed manually, covered and allowed to incubate at room temperature for 75 min. Protein kinase activity was quantitated using Promega's KINASE-GLO™ luminescent Kinase Assay Kit according to the manufacturer's directions. ATP concentrations remaining in Test wells following the termination of the enzymatic reaction were compared against control wells containing equivalent amounts of DMSO containing no inhibitor (CTRL). […] Percent of Control (POC) values were determined for each concentration of compound tested according to the equation:
as §1, §2

[3] = target: T1, JAK3 (Homo sapiens, UniProt P52333); experiment: JAK assay (KINASE-GLO luminescent kinase assay), JAK3
T1 sequence (P52333 1-1124): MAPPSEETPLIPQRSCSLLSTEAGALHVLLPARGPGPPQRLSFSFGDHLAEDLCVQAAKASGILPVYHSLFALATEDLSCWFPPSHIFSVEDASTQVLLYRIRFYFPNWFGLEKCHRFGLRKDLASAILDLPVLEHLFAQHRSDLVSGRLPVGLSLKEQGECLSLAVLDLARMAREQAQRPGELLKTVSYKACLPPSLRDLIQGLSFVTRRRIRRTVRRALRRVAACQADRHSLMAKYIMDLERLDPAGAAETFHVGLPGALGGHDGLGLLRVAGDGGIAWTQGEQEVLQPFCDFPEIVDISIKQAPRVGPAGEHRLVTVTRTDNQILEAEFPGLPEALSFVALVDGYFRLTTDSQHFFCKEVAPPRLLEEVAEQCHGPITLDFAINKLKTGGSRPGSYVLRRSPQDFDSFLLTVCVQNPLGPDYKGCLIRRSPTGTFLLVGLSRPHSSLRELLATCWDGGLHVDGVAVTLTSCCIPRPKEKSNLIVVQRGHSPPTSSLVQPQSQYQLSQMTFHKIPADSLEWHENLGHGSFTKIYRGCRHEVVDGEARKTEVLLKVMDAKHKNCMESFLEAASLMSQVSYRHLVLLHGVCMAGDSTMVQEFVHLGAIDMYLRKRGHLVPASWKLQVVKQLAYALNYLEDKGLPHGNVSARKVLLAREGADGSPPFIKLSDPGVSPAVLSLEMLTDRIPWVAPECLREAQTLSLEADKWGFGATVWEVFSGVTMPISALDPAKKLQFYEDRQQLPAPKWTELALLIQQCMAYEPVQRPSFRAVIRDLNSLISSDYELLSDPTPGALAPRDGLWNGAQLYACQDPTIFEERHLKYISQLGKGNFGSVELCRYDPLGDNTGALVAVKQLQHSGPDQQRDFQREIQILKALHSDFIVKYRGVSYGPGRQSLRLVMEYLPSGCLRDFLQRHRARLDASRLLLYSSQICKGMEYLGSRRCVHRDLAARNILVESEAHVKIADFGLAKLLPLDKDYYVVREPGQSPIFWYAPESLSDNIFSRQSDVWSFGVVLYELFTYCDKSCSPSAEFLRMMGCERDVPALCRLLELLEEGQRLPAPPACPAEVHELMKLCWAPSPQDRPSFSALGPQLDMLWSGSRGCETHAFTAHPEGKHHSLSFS
Protocol: as §3, §1, §2

[4] = target: JAK1 (Homo sapiens, UniProt P23458); experiment: JAK assay (KINASE-GLO luminescent kinase assay), JAK1
Protocol: as §3, §1, §2

Chain of JAK1 (P23458 whole entry): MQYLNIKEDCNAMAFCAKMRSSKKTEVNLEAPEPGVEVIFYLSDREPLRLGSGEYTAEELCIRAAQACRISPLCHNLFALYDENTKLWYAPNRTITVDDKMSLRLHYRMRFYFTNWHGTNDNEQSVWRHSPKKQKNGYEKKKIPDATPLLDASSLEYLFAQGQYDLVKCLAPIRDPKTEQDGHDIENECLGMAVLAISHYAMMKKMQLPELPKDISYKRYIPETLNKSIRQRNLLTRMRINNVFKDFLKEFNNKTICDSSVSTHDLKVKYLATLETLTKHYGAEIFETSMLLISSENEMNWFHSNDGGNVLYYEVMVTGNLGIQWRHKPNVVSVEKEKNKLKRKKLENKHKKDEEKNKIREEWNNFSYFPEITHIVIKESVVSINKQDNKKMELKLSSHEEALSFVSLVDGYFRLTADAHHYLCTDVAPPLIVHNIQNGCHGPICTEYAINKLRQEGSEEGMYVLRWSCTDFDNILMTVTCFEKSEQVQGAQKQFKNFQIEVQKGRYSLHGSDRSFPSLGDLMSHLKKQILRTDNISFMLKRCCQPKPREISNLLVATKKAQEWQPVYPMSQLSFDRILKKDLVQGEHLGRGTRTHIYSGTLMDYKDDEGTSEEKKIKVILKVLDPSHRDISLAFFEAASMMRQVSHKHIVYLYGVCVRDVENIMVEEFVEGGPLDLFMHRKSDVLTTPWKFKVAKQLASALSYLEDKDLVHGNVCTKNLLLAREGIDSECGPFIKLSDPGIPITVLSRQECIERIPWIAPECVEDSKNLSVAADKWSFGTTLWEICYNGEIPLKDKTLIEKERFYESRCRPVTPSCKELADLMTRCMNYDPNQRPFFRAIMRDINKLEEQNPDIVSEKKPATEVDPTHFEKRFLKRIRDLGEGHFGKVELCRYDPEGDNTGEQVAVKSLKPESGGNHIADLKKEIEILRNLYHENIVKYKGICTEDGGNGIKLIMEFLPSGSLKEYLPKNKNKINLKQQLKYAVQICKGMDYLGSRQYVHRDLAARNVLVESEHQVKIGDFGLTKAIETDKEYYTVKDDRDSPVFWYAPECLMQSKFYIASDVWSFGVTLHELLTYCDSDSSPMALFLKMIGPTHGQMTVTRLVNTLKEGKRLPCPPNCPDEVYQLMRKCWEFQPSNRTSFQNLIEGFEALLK
Chain of JAK2 (O60674 whole entry): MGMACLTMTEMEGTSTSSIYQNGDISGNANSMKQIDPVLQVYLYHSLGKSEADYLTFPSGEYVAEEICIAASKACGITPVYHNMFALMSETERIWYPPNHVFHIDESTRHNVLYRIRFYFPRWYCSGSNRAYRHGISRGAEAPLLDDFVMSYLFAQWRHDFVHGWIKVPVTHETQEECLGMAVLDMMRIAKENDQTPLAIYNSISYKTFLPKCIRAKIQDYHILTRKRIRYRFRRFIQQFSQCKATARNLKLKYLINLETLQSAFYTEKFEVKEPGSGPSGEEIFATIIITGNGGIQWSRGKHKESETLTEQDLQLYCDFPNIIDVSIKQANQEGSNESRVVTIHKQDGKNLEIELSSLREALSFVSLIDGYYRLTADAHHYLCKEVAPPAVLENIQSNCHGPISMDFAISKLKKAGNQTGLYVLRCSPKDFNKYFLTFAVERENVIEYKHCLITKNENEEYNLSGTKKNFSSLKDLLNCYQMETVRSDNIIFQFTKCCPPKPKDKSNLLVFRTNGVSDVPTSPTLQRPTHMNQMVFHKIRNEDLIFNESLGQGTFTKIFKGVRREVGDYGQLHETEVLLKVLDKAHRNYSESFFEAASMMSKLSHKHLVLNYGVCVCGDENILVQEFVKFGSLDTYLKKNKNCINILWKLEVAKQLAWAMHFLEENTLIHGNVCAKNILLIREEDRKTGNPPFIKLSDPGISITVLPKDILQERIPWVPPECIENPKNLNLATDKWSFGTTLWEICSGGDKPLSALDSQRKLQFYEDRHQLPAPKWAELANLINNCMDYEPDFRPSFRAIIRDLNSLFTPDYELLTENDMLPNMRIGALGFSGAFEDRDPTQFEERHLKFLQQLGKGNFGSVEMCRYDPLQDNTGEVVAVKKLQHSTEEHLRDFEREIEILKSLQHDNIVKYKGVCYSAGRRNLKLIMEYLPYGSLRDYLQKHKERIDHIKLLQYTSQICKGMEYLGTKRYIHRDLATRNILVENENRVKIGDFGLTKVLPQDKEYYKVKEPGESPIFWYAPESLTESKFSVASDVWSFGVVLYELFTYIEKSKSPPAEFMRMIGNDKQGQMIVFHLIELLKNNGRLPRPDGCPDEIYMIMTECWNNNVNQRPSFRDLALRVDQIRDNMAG
Chain of TYK2 (P29597 whole entry): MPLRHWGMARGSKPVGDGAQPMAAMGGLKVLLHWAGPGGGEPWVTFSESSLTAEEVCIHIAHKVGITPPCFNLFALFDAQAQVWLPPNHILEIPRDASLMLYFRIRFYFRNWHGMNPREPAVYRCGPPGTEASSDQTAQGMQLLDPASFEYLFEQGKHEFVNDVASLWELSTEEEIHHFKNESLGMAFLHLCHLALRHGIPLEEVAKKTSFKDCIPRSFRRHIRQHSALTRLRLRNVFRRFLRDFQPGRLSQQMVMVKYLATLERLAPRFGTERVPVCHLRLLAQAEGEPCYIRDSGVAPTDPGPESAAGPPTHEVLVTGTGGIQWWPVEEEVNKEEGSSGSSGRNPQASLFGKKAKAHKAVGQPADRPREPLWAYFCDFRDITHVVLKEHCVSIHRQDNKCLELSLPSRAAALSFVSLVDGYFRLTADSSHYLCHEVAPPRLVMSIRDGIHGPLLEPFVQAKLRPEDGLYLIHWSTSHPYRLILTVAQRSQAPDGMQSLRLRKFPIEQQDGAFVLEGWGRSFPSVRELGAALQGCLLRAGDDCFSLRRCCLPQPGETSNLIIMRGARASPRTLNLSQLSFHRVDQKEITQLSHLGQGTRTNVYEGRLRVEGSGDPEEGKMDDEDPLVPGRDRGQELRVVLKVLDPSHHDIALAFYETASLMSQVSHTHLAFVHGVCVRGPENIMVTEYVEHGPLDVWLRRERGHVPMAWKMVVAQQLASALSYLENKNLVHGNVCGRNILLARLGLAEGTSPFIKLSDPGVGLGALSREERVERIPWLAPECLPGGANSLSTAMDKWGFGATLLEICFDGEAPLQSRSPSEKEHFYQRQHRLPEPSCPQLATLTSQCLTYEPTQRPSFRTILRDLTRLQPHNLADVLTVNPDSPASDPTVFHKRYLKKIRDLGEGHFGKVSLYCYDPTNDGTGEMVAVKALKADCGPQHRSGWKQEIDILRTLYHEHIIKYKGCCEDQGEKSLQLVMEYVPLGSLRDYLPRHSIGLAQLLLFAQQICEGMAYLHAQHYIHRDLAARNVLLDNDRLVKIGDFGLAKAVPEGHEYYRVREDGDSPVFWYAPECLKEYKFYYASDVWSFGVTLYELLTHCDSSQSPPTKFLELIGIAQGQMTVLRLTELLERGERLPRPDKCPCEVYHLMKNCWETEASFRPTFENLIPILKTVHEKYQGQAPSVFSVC

Row | Structure (SMILES) | IC50 [1] [nM] | IC50 [2] [nM] | IC50 [3] [nM] | IC50 [4] [nM]
1 | CC(=O)OCCc1ccc(Nc2ncc(Cl)c(-c3cnn(CCC#N)c3)n2)cc1 [CC(═O)OCCC1═CC═C(NC2═NC(═C] | < 10 | < 10 | < 100 | < 100
2 | N#CCCn1cc(-c2ccnc(NC(=O)C3CC3)n2)cn1 [O═C(NC1═NC(═CC═N1)C2═C[N]] | < 100000 | < 100000 | > 50000 | < 100000
3 | CNCc1cc(Nc2ncc(C)c(-c3cnn(CC4(CF)CC4)c3)n2)sn1 [CNCC1═NSC(═C1)NC2═NC(═C] | < 100 | < 10 | < 100 | < 100
4 | Cc1cnc(Nc2cn(C)nn2)nc1-c1cnn(CC2(CF)CC2)c1 [C[N]1C═C(NC2═NC(═C(C)C═N2)C3═C[N]] | < 1000 | < 100 | < 1000 | < 1000
5 | Cc1cnc(N2CCCCC2)nc1-c1cnn(CCC#N)c1 [CC1═C(N═C(N═C1)N2CCCCC2)C3═C[N]] | > 50000 | > 50000 | > 50000 | > 50000
6 | Cc1cnc(Nc2ccc(N3CC4(COC4)C3)cc2)nc1-c1cnn(CC2(CF)CC2)c1 [CC1═C(N═C(NC2═CC═C(C═C2)N3CC4] | < 100 | < 10 | < 10 | < 100
7 | Clc1cnc(Nc2cccc(CN3CCC3)c2)nc1 [ClC1═C(N═C(NC2═CC(═CC═C2)CN3CCC3)N═C1)] | < 10 | < 10 | < 10 | < 100
8 | Cc1cnc(NCCN2CCCCC2)nc1-c1cnn(CCC#N)c1 [CC1═C(N═C(NCCN2CCCCC2)N═C1)C3═C[N]] | > 50000 | > 50000 | > 50000 | > 50000
9 | Clc1cnc(NC23CC(C2)C3)nc1-c1cnn(Cc2cccs2)c1 [ClC1═C(N═C(NC23CC(C2)C3)N═C1)C4═C[N]] | > 50000 | > 50000 | < 100000 | > 50000
10 | Cc1cnc(Nc2cc(CNC(=O)CCN(C)C)ns2)nc1-c1cnn(CC2(CF)CC2)c1 [CN(C)CCC(═O)NCC1═NSC(═C1)NC2═NC] | < 10 | < 10 | < 10 | < 10
11 | COC(=O)c1cc(Nc2ncc(C)c(-c3cnn(CCC#N)c3)n2)ccc1N1CCOCC1 [COC(═O)C1═CC(═CC═C1)NC2═NC(═C] | < 100 | < 10 | < 10 | < 100
12 | CC(C)(C)OC(=O)N1CC(CF)(Cn2cc(-c3nc(Nc4ccc(C(N)=O)cc4)ncc3Cl)cn2)C1 [CC(C)(C)OC(═O)N1CC(CF)(C1)C[N]2C═C] | < 100 | < 100 | < 100 | < 100
13 | COc1ccc(Nc2ncc(C)c(-c3cnn(CC4(CF)CC4)c3)n2)cn1 [COC1═CC═C(NC2═NC(═C] | < 100 | < 10 | < 100 | < 1000
14 | Cc1cnc(Nc2ccc3c(c2)C(=O)N(C)C3=O)nc1-c1cnn(CC2(Cl)CC2)c1 [CN1C(═O)C2═C(C═C(NC3═NC(═C] | < 100 | < 10 | < 100 | < 1000
